Reference: patent US7504390B2, “Benzoxazepine derivatives and their use as AMPA receptor stimulators” (N.V. Organon, priority 2001, dated 2009)

tested on: not given; test: not given; conditions: not given

Row | melting point [°C] | SMILES
1 | 92 to 94 | O=C1c2ccc(Cl)cc2OC[C@H]2CCCN12 [Example 4, (R)-8-chloro-2,3,11,11a-tetrahydro-1H,5H-pyrrolo[2,1-c][1,4]benzoxazepine-5-one]
2 | 75 to 76 | O=C1c2ccc(F)cc2OC[C@@H]2CCCN12 [Example 5, (S)-8-fluoro-2,3,11,11a-tetrahydro-1H,5H-pyrrolo[2,1-c][1,4]benzoxazepine-5-one]
3 | 89 to 90 | O=C1c2cccc(Cl)c2OC[C@@H]2CCCN12 [Example 8, (S)-9-Chloro-2,3,11,11a-tetrahydro-1H,5H-pyrrolo[2,1-c][1,4]benzoxazepine-5-one]
4 | 140 to 140.5 | O=C(c1ccc2c(c1)C(=O)N1CCC[C@H]1CO2)N1CCCCC1 [Example 15, (S)-7-(Piperidinocarbonyl)-2,3,11,11a-tetrahydro-1H,5H-pyrrolo[2,1-c][1,4]benzoxazepine-5]
5 | 164 to 165 | N#Cc1ccc2c(c1)C(=O)N1CCC[C@@H]1CO2 [Example 19, (R)-7-Cyano-2,3,11,11a-tetrahydro-1H5H-pyrrolo[2,1-c][1,4]benzoxazepine-5-one]

tested on: AMPA receptor; test: Patch clamp whole cell electrophysiology: glutamate-evoked steady state current in cultured hippocampal neurons; type: cell-based, Sprague-Dawley rats; conditions: 10 μM compound in extracellular solution; glutamate 0.5 mM; holding potential −60 mV; cultured rat hippocampal neurons
Text: The benzoxazepines of the invention are AMPA receptor stimulators, as can be determined by an increase in steady state current induced by application of glutamate in a conventional whole cell patch clamp method when a benzoxazepine of the invention is present (see Example 30 and Table I). The compounds may be used in the treatment of neurological and psychiatric diseases where an enhancement of synaptic responses mediated by AMPA receptors is required, such as neuro-degenerative disorders, cognitive or memory dysfunction, memory and learning disorders such as can result from ageing, attention disorder, trauma, stroke, epilepsy, Alzheimer's disease, depression, schizophrenia, psychotic disorders, anxiety, sexual dysfunctions, autism, or a disorder or disease resulting from neurotic agents or substance abuse, and alcohol intoxication.
Hippocampal neurons were prepared from embryonic or 1-3 day old Sprague-Dawley rats which were decapitated and the heads immediately placed in ice cold HBS (HEPES Buffered Solution: 130 mM NaCl, 5.4 mM KCl, 10 mM HEPES, 1.0 mM MgCl2, 1.8 CaCl2, 25 mM glucose, adjusted to pH 7.4). The whole brain was excised and placed on pre-sterilised filter paper, soaked in HBS and the cerebellum was removed. The brain was chopped and an enzyme solution (0.5 mg/ml protease X and 0.5 mg/ml protease in HBS) was added and subsequently left for 40 minutes at room temperature to digest before trituration. Cells were resuspended and then counted to give a final concentration of 1.5×10^8 per ml. Cells were aliquoted onto poly-D-lysine- and Matrigel®-treated coverslips and left to incubate at 37° C. for 1-2 hours. When incubation was complete, 1 ml of growth medium was added to each well containing a coverslip and the cells were returned to the incubator. After 3-5 days the mitotic inhibitor cytosine arabinoside (5 μM) was added and the cells returned to the incubator until required.
The whole cell configuration of the patch clamp technique (Hamill et al., Pflũgers Arch. 1981, 39, 85-100) was used to measure glutamate-evoked currents from postnatal hippocampal neurons maintained in culture for 4-7 days. A glass coverslip containing the culture was transferred to the recording chamber (Warner Instrument Corp., Hamden, Conn.) mounted on the stage of an inverted microscope (Nikon, Kingston, UK). The recording chamber contained 1-2 ml extracellular solution (145 mM NaCl, 5.4 mM KCl, 10 mM HEPES, 0.8 mM MgCl2, 1.8 CaCl2, 10 mM glucose and 30 mM sucrose, adjusted to pH 7.4 with 1M NaOH) and was constantly perfused at a rate of 1 ml/min. Recordings were performed at room temperature (20-22° C.) using an Axopatch 200B amplifier (Axon Instruments Ltd., Foster City, Calif.). Data acquisition and analysis was performed using Signal software (Cambridge electronic Design Ltd., Cambridge, UK). Pipettes were manufactured from GC120F-10 glass (Harvard Apparatus, Edenbridge UK) using a model P-87 electrode puller (Sutter Instruments Co., Novarto, Calif.). The patch electrodes had typical resistances of between 3-5 MΩ when filled with intracellular solution (140 mM potassium gluconate, 20 mM HEPES, 1.1 mM EGTA, 5 mM phosphocreatine, 3 mM ATP, 0.3 mM GTP, 0.1 mM CaCl2, 5 mM MgCl2, adjusted to pH 7.4 with 1M KOH).
Cells were voltage clamped at a holding potential of −60 mV and glutamate (0.5 mM) was applied using a 12 channel semi-rapid drug application device (DAD-12. Digitimer Ltd., Welwyn Garden City, UK). The agonist glutamate was applied for 1 s every 30 s. […] Between applications saline flowed to clear any dead volume in the system. For each application steady-state currents were plotted from the difference in baseline and steady state current and averaged over 300 ms.
Two solutions of the compound in extracellular solution were made up, one with glutamate and one without. The protocol was: 10 second application of compound, 1 second application of compound+glutamate and then 10 second wash with saline, then a 10 second delay. […]

Row | SMILES | % Increase In steady state current at 10 μM [%]
6 | O=C1c2ccccc2OC[C@H]2CCCN12 [(R)-2,3,11,11a-tetrahydro-1H,5H-pyrrolo[2,1-c][1,4]benzoxazepine-5-one, reference compound] | 24
7 | O=C1c2ccccc2OC[C@@H]2CCCN12 [(S)-2,3,11,11a-tetrahydro-1H,5H-pyrrolo[2,1-c][1,4]benzoxazepine-5-one, reference compound] | 53
8 | O=C1c2cc(F)ccc2OC[C@H]2CCCN12 [Example 1, (R)-7-Fluoro-2,3,11,11a-tetrahydro-1H,5H-pyrrolo[2,1-c][1,4]benzoxazepine-5-one] | 17
9 | O=C1c2cc(F)ccc2OC[C@@H]2CCCN12 [Example 2, (S)-7-Fluoro-2,3,11,11a-tetrahydro-1H,5H-pyrrolo[2,1-c][1,4]benzoxazepine-5-one] | 19
10 | O=C1c2cccc(F)c2OC[C@H]2CCCN12 [Example 3A, (R)-9-Fluoro-2,3,11,11a-tetrahydro-1H,5H-pyrrolo[2,1c][1,4]benzoxazepine-5-one] | 23
11 | O=C1c2cccc(F)c2OC[C@@H]2CCCN12 [Example 3B, (S)-9-Fluoro-2,3,11,11a-tetrahydro-1H,5H-pyrrolo[2,1-c][1,4]benzoxazepine-5-one] | 20
12 | O=S1(=O)c2ccccc2OC[C@@H]2CCCN21 [Example 10, (S)-2,3,11,11,a-tetrahydro-1H,5H-pyrrolo[2,1-c][5,1,4]benzthiaoxazepine-5-dioxide] | 7
13 | COc1ccc2c(c1)OC[C@@H]1CCCN1C2=O [Example 11, (S)-8-Methoxy-2,3,11,11a-tetrahydro-1H,5H-pyrrolo[2,1-c][1,4]benzoxazepine-5-one] | 21
14 | CC(=O)Nc1ccc2c(c1)C(=O)N1CCC[C@H]1CO2 [Example 14, (S)-N-(2,3,11,11a-tetrahydro-5-oxo-1H,5H-pyrrolo[2,1-a][1,4]benzoxazepin-7-yl)-acetamide] | 49
15 | O=C(c1ccc2c(c1)C(=O)N1CCC[C@H]1CO2)N1CCOCC1 [Example 16A, (S)-7-(morpholinocarbonyl)-2,3,11,11a-tetrahydro-1H,5H-pyrrolo[2,1-c][1,4]-benzoxazepine-5-one] | 24
16 | NC(=O)c1ccc2c(c1)C(=O)N1CCC[C@H]1CO2 [Example 17A, (S)-7-(aminocarbonyl)-2,3,11,11a-tetrahydro-1H,5H-pyrrolo[2,1-c][1,4]benzoxazeline-5-one] | 8
17 | CC[C@H]1Oc2ccccc2C(=O)N2CCC[C@@H]12 [Example 20A, (11R, 11aS)-11-Ethyl-2,3,11,11a-tetrahydro-1H,5H-pyrrolo[2,1-c][1,4]benzoxazepine-5-one] | 31
18 | CC[C@@H]1Oc2ccccc2C(=O)N2CCC[C@@H]12 [Example 20B, (11S. 11aS)-11-Ethyl-2,3,11,11a-tetrahydro-1H,5H-pyrrolo[2,1-c][1,4]benzoxazepine-5-one] | 28
19 | O=C1c2ccccc2OCC2COCCN12 (stereo not drawn) [Example 22, 6,6a-Dihydro-12H-Morpholino[3,4-c][1,4]benzoxazepin-12-one] | 31
20 | O=C1c2ccccc2OC[C@@H]2CCN12 [Example 23, (S)-1,2,10,10a-Tetrahydroazetidinyl[2,1-c][1,4]benzoxazepin-4-one] | 16
21 | CC1(C)COC2COc3ccccc3C(=O)N21 (stereo not drawn) [Example 24, 2,11,11a-Trihydro-3,3dimethyloxazolidinyl[2,1-c][1,4]-benzoxazepin-5-one] | 18
22 | O=C1c2ccccc2OC[C@@H]2C[C@@H](O)CN12 [Example 25, (2R,11aS)-2-Hydroxy-2,3,11,11a-tetrahydro-1H,5H-pyrrolo[2,1-c][1,4]benzoxazepine-5-one] | 31
23 | O=C1c2ccccc2OC[C@@H]2C[C@H](F)CN12 [Example 26, (2S,11aS)2-Fluoro-23,11,11a-tetrahydro-1H,5H-pyrrolo[2,1-c][1,4]benzoxazepine-5-one] | 24
24 | O=C1c2ccccc2OC[C@@H]2CC(F)(F)CN12 [Example 28, (2S)-2,2-Difluoro-2,3,11,11a-tetrahydro-1H,5H-pyrrolo[2,1-c][1,4]benzoxazepine-5-one] | 9

tested on: not listed separately; test: Inhibition of amphetamine-induced hyperlocomotion; type: in vivo; conditions: mice; sc, 30 minutes before 1.5 mg/kg d-amphetamine sulphate sc; measured for 60 minutes
Procedure: Mice were injected sc with drug or vehicle control. 30 Minutes later mice were injected sc with 1.5 mg/kg d-amphetamine sulphate or saline and immediately placed in infra red locomotor boxes where locomotor activity (long duration beam breaks of two adjacent beams) and stereotypic behaviour (repetitive short-duration beam breaks) were measured for a period of 60 minutes. The experiment was analysed using a 3-Way ANOVA with experimental session, infra red locomotor boxes and treatment as factors, and in the case of treatment, significant effects were followed up using a Tukey (HSD) test.

Row | SMILES | antipsychotic like activity (inhibited amphetamine induced hyperlocomotion)
25 | O=C1c2ccccc2OC[C@@H]2CCCN12 [(S)-2,3,11,11a-tetrahydro-1H,5H-pyrrolo[2,1-c][1,4]benzoxazepine-5-one, reference compound] | antipsychotic like activity
26 | O=C1c2cccc(F)c2OC[C@H]2CCCN12 [Example 3A, (R)-9-Fluoro-2,3,11,11a-tetrahydro-1H,5H-pyrrolo[2,1c][1,4]benzoxazepine-5-one] | antipsychotic like activity

tested on: not listed separately; test: Differential Reinforcement of Low Rates of Responding, 72 Seconds (DRL72); type: in vivo; conditions: rats; intraperitoneal route 30 minutes before the test session
Procedure: Rats are pretrained in a standard operant chamber to perform a DRL72 procedure according to Andrews et al (Andrews J S, Jansen J H M, Linders S, Princen A, Drinkenburg W H I M, Coenders C J H and Vossen J H M (1994). Effects of imipramine and mirtazapine on operant performance in rats. Drug Development Research, 32:58-66). The test session lasts for 60 minutes with no limit to the number of trials. Each trial begins with the stimulus light on above the active lever. A response on the lever only results in delivery of a pellet if 72 seconds has elapsed. A response on the lever before 72 seconds has elapsed resets the timer and is not rewarded. The number of pellets earned and the number of lever presses is recorded and used to calculate an efficiency score. Test compounds are administered via the intraperitoneal route 30 minutes before the start of the test session. Antidepressants increase the number of pellets earned and decrease the number of lever presses (Andrews et al, 1994).

Row | SMILES | antidepressant like profile in DRL72
27 | O=C1c2cccc(F)c2OC[C@@H]2CCCN12 [Example 3B, (S)-9-Fluoro-2,3,11,11a-tetrahydro-1H,5H-pyrrolo[2,1-c][1,4]benzoxazepine-5-one] | antidepressant like profile
